{"source": "paper PMC7125101", "about": "“Molecular bases for HOIPINs-mediated inhibition of LUBAC and innate immune responses” (Communications Biology, 2020)", "key": {"[1]": {"system": "HEK293T", "assay": "cells", "set-up": "species or system human tumour lines, mouse MEF; Cell viability after 72 h, CellTiter-Glo luminescent assay", "conditions": "Homo sapiens, HEK-293T, 72 h", "text": "Importantly, the polymorphisms in HOIP are closely associated with ABC-DLBCL[23]. […] Therefore, we investigated the effect of HOIPINs on B cell lymphoma cells. […] In ABC-DLBCL cell lines, the phosphorylation of p105 and p65 and the expression of NF-κB target genes were suppressed by HOIPINs (Fig. 6d, e). Moreover, the phosphorylation of IκBα was decreased concomitantly with the reduced intracellular amounts of linear polyubiquitin in HOIPIN-1-treated HBL1 cells (an ABC-DLBCL cell line), but not in BJAB cells (a GCB-DLBCL cell line) (Fig. 6f). […] GCB-DLBCL cells (BJAB, SU-DHL-4, and HT) and ABC-DLBCL cells (TK, DLBCL2, and OYB) were cultured in the presence of DMSO or 10 μM HOIPIN-1. Taking the cell viabilities in the presence of DMSO as 100%, the relative cell viabilities of respective cell line in the presence of HOIPIN-1 were assessed by a CellTiter-Glo luminescent cell viability assay. b HOIPIN-8 enhanced the cell death of ABC-DLBCL cells than HOIPIN-1. DLBCL2 cells or BJAB cells were treated with DMSO, 10 μM HOIPIN-1, or 10 μM HOIPIN-8 for the indicated period, and the relative cell viabilities were assessed as in a. c Caspase activation in ABC-DLBCL cells by HOIPIN-8. […] Cells were treated and analyzed as in c. e HOIPIN-1 suppresses the expression of NF-κB target genes in ABC-DLBCL cells. […]"}, "[2]": {"system": "WT-MEF", "assay": "cells", "set-up": "species or system human tumour lines, HEK293T, mouse MEF; Cell viability after 72 h, CellTiter-Glo luminescent assay", "conditions": "72 h", "text": "(§1) Importantly, the polymorphisms in HOIP are closely associated with ABC-DLBCL[23]. […] Therefore, we investigated the effect of HOIPINs on B cell lymphoma cells. […] In ABC-DLBCL cell lines, the phosphorylation of p105 and p65 and the expression of NF-κB target genes were suppressed by HOIPINs (Fig. 6d, e). Moreover, the phosphorylation of IκBα was decreased concomitantly with the reduced intracellular amounts of linear polyubiquitin in HOIPIN-1-treated HBL1 cells (an ABC-DLBCL cell line), but not in BJAB cells (a GCB-DLBCL cell line) (Fig. 6f). […] GCB-DLBCL cells (BJAB, SU-DHL-4, and HT) and ABC-DLBCL cells (TK, DLBCL2, and OYB) were cultured in the presence of DMSO or 10 μM HOIPIN-1. Taking the cell viabilities in the presence of DMSO as 100%, the relative cell viabilities of respective cell line in the presence of HOIPIN-1 were assessed by a CellTiter-Glo luminescent cell viability assay. b HOIPIN-8 enhanced the cell death of ABC-DLBCL cells than HOIPIN-1. DLBCL2 cells or BJAB cells were treated with DMSO, 10 μM HOIPIN-1, or 10 μM HOIPIN-8 for the indicated period, and the relative cell viabilities were assessed as in a. c Caspase activation in ABC-DLBCL cells by HOIPIN-8. Cells were treated with or without 10 μM HOIPIN-8 for 24 h, and cell lysates were immunoblotted with the indicated antibodies. d Reduced NF-κB activation in ABC-DLBCL cells by HOIPIN-8. Cells were treated and analyzed as in c. e HOIPIN-1 suppresses the expression of NF-κB target genes in ABC-DLBCL cells. Cells were treated with 10 μM HOIPIN-1 for 24 h, and qPCR analyses were performed. f Intracellular linear ubiquitin and IκBα phosphorylation in ABC-DLBCL cells are diminished by HOIPIN-1. HBL1 and BJAB cells were treated with 10 μM HOIPIN-1 for the indicated period, and cell lysates were immunoblotted with the indicated antibodies. g HOIPIN-8 has potent inhibitory effects on NF-κB activation and linear ubiquitination in ABC-DLBCL cells than those in HOIPIN-1. HBL1 cells were treated with the indicated concentrations of HOIPIN-1 or -8 for 24 h, and cell lysates were immunoblotted with the indicated antibodies. In b, e, data are shown as mean ± SEM, NS not significant, *P < 0.05, **P < 0.01, ***P < 0.001, ****P < 0.0001, by one-way ANOVA with Tukey’s post hoc test. A549, HEK293T, HeLa (ATCC), optineurin-deficient HeLa[31], HOIP-deficient HeLa, C885A mutant of HOIP-restored HeLa, wild-type MEF, and Sharpin-deficient cpdm MEF cells were cultured in DMEM containing 10% fetal bovine serum, 100 IU/ml penicillin G, and 100 μg/ml streptomycin. […]"}, "[3]": {"system": "T1, cpdm MEF", "T1 construct": "cpdm (Sharpin-deficient)", "assay": "cells", "set-up": "species or system human tumour lines, HEK293T, mouse MEF; Cell viability after 72 h, CellTiter-Glo luminescent assay", "conditions": "72 h", "text": "as §1"}, "[4]": {"system": "HT", "assay": "cells", "set-up": "species or system human tumour lines, HEK293T, mouse MEF; Cell viability after 72 h, CellTiter-Glo luminescent assay", "conditions": "Homo sapiens, HT, 72 h"}, "[5]": {"system": "HeLa", "assay": "cells", "set-up": "species or system human tumour lines, HEK293T, mouse MEF; Cell viability after 72 h, CellTiter-Glo luminescent assay", "conditions": "Homo sapiens, HeLa, 72 h"}, "[6]": {"system": "KM-H2", "assay": "cells", "set-up": "species or system human tumour lines, HEK293T, mouse MEF; Cell viability after 72 h, CellTiter-Glo luminescent assay", "conditions": "Homo sapiens, KM-H2, 72 h"}, "[7]": {"system": "Jurkat", "assay": "cells", "set-up": "species or system human tumour lines, HEK293T, mouse MEF; Cell viability after 72 h, CellTiter-Glo luminescent assay", "conditions": "Homo sapiens, Jurkat, 72 h"}, "[8]": {"system": "OYB", "assay": "cells", "set-up": "species or system human tumour lines, HEK293T, mouse MEF; Cell viability after 72 h, CellTiter-Glo luminescent assay", "conditions": "Homo sapiens, HEK-293T, 72 h"}, "[9]": {"system": "SU-DHL-4", "assay": "cells", "set-up": "species or system human tumour lines, HEK293T, mouse MEF; Cell viability after 72 h, CellTiter-Glo luminescent assay", "conditions": "Homo sapiens, SU-DHL-4, 72 h"}, "[10]": {"system": "TK", "assay": "cells", "set-up": "species or system human tumour lines, HEK293T, mouse MEF; Cell viability after 72 h, CellTiter-Glo luminescent assay", "conditions": "Homo sapiens, HEK-293T, 72 h"}, "[11]": {"system": "BJAB", "assay": "cells", "set-up": "species or system human tumour lines, HEK293T, mouse MEF; Cell viability after 72 h, CellTiter-Glo luminescent assay", "conditions": "Homo sapiens, BJAB, 72 h"}, "[12]": {"system": "Karpas1160P", "assay": "cells", "set-up": "species or system human tumour lines, HEK293T, mouse MEF; Cell viability after 72 h, CellTiter-Glo luminescent assay", "conditions": "Homo sapiens, HEK-293T, 72 h"}, "[13]": {"system": "HBL1", "assay": "cells", "set-up": "species or system human tumour lines, HEK293T, mouse MEF; Cell viability after 72 h, CellTiter-Glo luminescent assay", "conditions": "HBL1, 72 h"}, "[14]": {"system": "A549", "assay": "cells", "set-up": "species or system human tumour lines, HEK293T, mouse MEF; Cell viability after 72 h, CellTiter-Glo luminescent assay", "conditions": "Homo sapiens, A549, 72 h"}, "[15]": {"system": "DLBCL2", "assay": "cells", "set-up": "species or system human tumour lines, HEK293T, mouse MEF; Cell viability after 72 h, CellTiter-Glo luminescent assay", "conditions": "Homo sapiens, HEK-293T, 72 h; read-out: HOIPIN-1 (IC50)"}, "[16]": {"molecular_target": "T2, HOIP (Homo sapiens, UniProt Q96EP0)", "T2 construct": "gene RNF31; RING2-LDD domain, residues 853–1072", "assay": "X-ray crystal structure at […] Å; also MALDI-TOF intact mass adduct (+[…]) on petit-LUBAC and inhibition of HOIP~ubiquitin thioester formation", "format": "binding"}}, "note": "Where a name gives a salt, the structure may show the parent alone. Read-outs that look alike come from different tables or passages of the source."}
{"smiles": "Cn1cc(-c2ccc(C(=O)O)c(/C=C/C(=O)c3c(F)cc(-c4cn[nH]c4)cc3F)c2)cn1", "note": "[HOIPIN-8, 2-{(E)-3-[2,6-difluoro-4-(1H-pyrazol-4-yl)-phenyl]-3-oxo-propenyl}-4-(1-methyl-1H-pyraol-4-yl)-benzoic acid sodium salt]", "values": [{"measurement": "IC50", "setting": "[1]; read-out: HOIPIN-8 (IC50)", "result": 70.3, "unit": "µM"}, {"measurement": "IC50", "setting": "[2]; read-out: HOIPIN-8 (IC50)", "result": 49.7, "unit": "µM"}, {"measurement": "IC50", "setting": "[3]; read-out: HOIPIN-8 (IC50)", "result": 51.8, "unit": "µM"}, {"measurement": "IC50", "setting": "[4]; read-out: HOIPIN-8 (IC50)", "result": "> 30", "unit": "µM"}, {"measurement": "IC50", "setting": "[5]; read-out: HOIPIN-8 (IC50)", "result": "> 100", "unit": "µM"}, {"measurement": "IC50", "setting": "[6]; read-out: HOIPIN-8 (IC50)", "result": 40.7, "unit": "µM"}, {"measurement": "IC50", "setting": "[7]; read-out: HOIPIN-8 (IC50)", "result": "> 100", "unit": "µM"}, {"measurement": "IC50", "setting": "[8]; read-out: HOIPIN-8 (IC50)", "result": 14.4, "unit": "µM"}, {"measurement": "IC50", "setting": "[9]; read-out: HOIPIN-8 (IC50)", "result": "> 30", "unit": "µM"}, {"measurement": "IC50", "setting": "[10]; read-out: HOIPIN-8 (IC50)", "result": 3.7, "unit": "µM"}, {"measurement": "IC50", "setting": "[11]; read-out: HOIPIN-8 (IC50)", "result": "> 30", "unit": "µM"}, {"measurement": "IC50", "setting": "[12]; read-out: HOIPIN-8 (IC50)", "result": 27.6, "unit": "µM"}, {"measurement": "IC50", "setting": "[13]; read-out: HOIPIN-8 (IC50)", "result": 16.7, "unit": "µM"}, {"measurement": "IC50", "setting": "[14]; read-out: HOIPIN-8 (IC50)", "result": "> 100", "unit": "µM"}]}
{"smiles": "COc1ccccc1C(=O)/C=C/c1ccccc1C(=O)O", "note": "[HOIPIN-1, 2-[(1E)-3-(2-methoxyphenyl)-3-oxoprop-1-en-1yl] benzoic acid sodium salt]", "values": [{"measurement": "IC50", "setting": "[1]; read-out: HOIPIN-1 (IC50)", "result": 40.3, "unit": "µM"}, {"measurement": "IC50", "setting": "[2]; read-out: HOIPIN-1 (IC50)", "result": "> 100", "unit": "µM"}, {"measurement": "IC50", "setting": "[3]; read-out: HOIPIN-1 (IC50)", "result": "> 100", "unit": "µM"}, {"measurement": "IC50", "setting": "[4]; read-out: HOIPIN-1 (IC50)", "result": 48.2, "unit": "µM"}, {"measurement": "IC50", "setting": "[5]; read-out: HOIPIN-1 (IC50)", "result": 33.7, "unit": "µM"}, {"measurement": "IC50", "setting": "[6]; read-out: HOIPIN-1 (IC50)", "result": 9.6, "unit": "µM"}, {"measurement": "IC50", "setting": "[7]; read-out: HOIPIN-1 (IC50)", "result": 20.6, "unit": "µM"}, {"measurement": "IC50", "setting": "[8]; read-out: HOIPIN-1 (IC50)", "result": 16, "unit": "µM"}, {"measurement": "IC50", "setting": "[15]", "result": 11.1, "unit": "µM"}, {"measurement": "IC50", "setting": "[9]; read-out: HOIPIN-1 (IC50)", "result": 46.9, "unit": "µM"}, {"measurement": "IC50", "setting": "[10]; read-out: HOIPIN-1 (IC50)", "result": 9.7, "unit": "µM"}, {"measurement": "IC50", "setting": "[11]; read-out: HOIPIN-1 (IC50)", "result": 52.2, "unit": "µM"}, {"measurement": "IC50", "setting": "[12]; read-out: HOIPIN-1 (IC50)", "result": 11, "unit": "µM"}, {"measurement": "IC50", "setting": "[13]; read-out: HOIPIN-1 (IC50)", "result": 16.4, "unit": "µM"}, {"measurement": "IC50", "setting": "[14]; read-out: HOIPIN-1 (IC50)", "result": "> 100", "unit": "µM"}, {"measurement": "X-ray crystal structure at 1.54 Å; also MALDI-TOF intact mass adduct (+263) on p", "setting": "[16]", "result": "HOIPINs are covalently attached to the catalytic Cys885 of HOIP via Michael addition"}]}
